The term Ki denotes the dissociation constant of the complex between target and ligand, obtained from inhibition or displacement. As usually defined, the melting point is the temperature of the solid-liquid transition. Broadly, the IC50 is the midpoint of a concentration-inhibition curve. A lower IC50 goes with greater potency in that assay.

Each structure is given as a SMILES string. Where a name gives a salt, the structure may show the parent alone.

Series [1] concerns the target α1-adrenoceptors (α1-ARs), rat cerebral cortex. As to the kind of experiment: Radioligand binding assay with [3H]-prazosin, affinity for α1-ARs. Particulars: three independent experiments in duplicates, read-out: α1-adrenoceptor affinity Ki. Here is the method:
In the first step, all synthesized compounds (1–15) were tested in vitro for their affinity for α1-ARs on rat cerebral cortex by the radioligand binding assay using [^3H]-prazosin as a specific radioligand.
The affinity for α1-ARs was determined by radioligand binding assay on rat cerebral cortex using [3H]-prazosin as a specific radioligand. The brains were homogenized in 20 volumes of an ice-cold 50 mM Tris-HCl buffer (pH 7.6) and were centrifuged (MPW Med. Instruments, Warsaw, Poland) at 20,000× g for 20 min (0–4 °C). The cell pellet was resuspended in the Tris-HCl buffer and centrifuged again. Radioligand-binding assay was performed in plates (MultiScreen/Millipore, Burlington, MA, USA). The final incubation mixture (final volume 300 μL) consisted of 240 μL of the membrane suspension, 30 μL of [3H]-Prazosin (0.2 nM) solution, and 30 μL of the buffer containing seven to eight concentrations (10^−11 to 10^−4 M) of the tested compounds. For measuring the unspecific binding, phentolamine, 10 μM (in the case of [3H]-Prazosin) was applied. The incubation was terminated by rapid filtration over glass fiber filters (Whatman GF/C, Sigma-Aldrich) using a vacuum manifold (Millipore). The filters were then washed twice with the assay buffer and placed in scintillation vials with a liquid-scintillation cocktail. Radioactivity was measured in a WALLAC 1409 DSA liquid-scintillation counter (BioSurplus, San Diego, CA, USA).
(§1) All statistics were performed using GraphPad Prism, Version 6.0 (GraphPad Software, San Diego, CA, USA). In the radioligand binding study, data were analyzed by a one-site curve-fitting equation, and inhibition constants (Ki) values were calculated via the Cheng-Prusoff equation [63]. In functional studies, data were analyzed using a sigmoidal dose-response (variable slope) equation. Arterial blood pressure data were analyzed using a two-way ANOVA with Sidak’s post-hoc test for multiple comparisons. A p < 0.05 was considered statistically significant.

In series [2] the target is T1, human adrenergic receptor α1A (Homo sapiens, UniProt P35348).
T1 sequence (P35348 1-466): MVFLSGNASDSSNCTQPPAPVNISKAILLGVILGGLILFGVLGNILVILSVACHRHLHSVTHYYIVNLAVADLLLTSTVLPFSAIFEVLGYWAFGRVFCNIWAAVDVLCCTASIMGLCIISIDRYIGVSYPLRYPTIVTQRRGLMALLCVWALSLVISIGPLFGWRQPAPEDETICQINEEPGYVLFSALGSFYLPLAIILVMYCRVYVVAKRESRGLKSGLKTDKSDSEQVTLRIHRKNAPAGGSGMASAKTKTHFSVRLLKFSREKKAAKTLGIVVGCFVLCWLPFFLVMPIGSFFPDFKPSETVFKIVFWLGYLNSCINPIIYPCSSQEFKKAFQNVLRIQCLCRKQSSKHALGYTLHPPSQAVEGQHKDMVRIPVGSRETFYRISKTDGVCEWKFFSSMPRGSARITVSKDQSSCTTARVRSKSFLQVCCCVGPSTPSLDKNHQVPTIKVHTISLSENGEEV
The series can be described thus: Intrinsic activity, aequorin luminescence functional assay at α1A-AR. The format is cell-based. Particulars: for α1A-AR Profile: agonist/antagonist profile; for IC50: cells expressing aequorin and human α1A, against phenylephrine, means of three independent experiments in duplicates; for Selectivity Ratio α1B/α1A: selectivity for α1A-AR (IC50(α1B-AR)/IC50(α1A-AR)). The procedure: (§2) The subtype selectivity for α1A and α1B was calculated as IC50(α1B-AR)/IC50(α1A-AR) and IC50(α1A-AR)/IC50(α1B-AR) ratio, respectively.
(§3) Intrinsic activity at the α1-AR subtypes studies were performed using the cells expressing mitochondrially-targeted aequorin and one of the human adrenergic receptor α1A or α1B (PerkinElmer, Boston, MA, USA), according to the manufacturer’s instructions. For measurement, frozen cells were thawed and re-suspended in 10 mL of assay buffer containing 5 μM “Coelenterazine h”. This cell suspension was put in a 10 mL Falcon tube, fixed onto a rotating heel, and incubated overnight at rt in the dark (8 rpm; 45° angle). Cells were diluted with Assay Buffer to 5000 cells/20 μL. […] The light emitted was recorded for 20 s. Cells with antagonists were incubated for 15 min at room temperature. […] Luminescence was measured using the multidetection microplate reader (POLARstar Omega, BMG LABTECH, Ortenberg, Germany).
as §1

Series [3] deals with T2, human adrenergic receptor α1B (Homo sapiens, UniProt P35368).
T2 sequence (P35368 1-520): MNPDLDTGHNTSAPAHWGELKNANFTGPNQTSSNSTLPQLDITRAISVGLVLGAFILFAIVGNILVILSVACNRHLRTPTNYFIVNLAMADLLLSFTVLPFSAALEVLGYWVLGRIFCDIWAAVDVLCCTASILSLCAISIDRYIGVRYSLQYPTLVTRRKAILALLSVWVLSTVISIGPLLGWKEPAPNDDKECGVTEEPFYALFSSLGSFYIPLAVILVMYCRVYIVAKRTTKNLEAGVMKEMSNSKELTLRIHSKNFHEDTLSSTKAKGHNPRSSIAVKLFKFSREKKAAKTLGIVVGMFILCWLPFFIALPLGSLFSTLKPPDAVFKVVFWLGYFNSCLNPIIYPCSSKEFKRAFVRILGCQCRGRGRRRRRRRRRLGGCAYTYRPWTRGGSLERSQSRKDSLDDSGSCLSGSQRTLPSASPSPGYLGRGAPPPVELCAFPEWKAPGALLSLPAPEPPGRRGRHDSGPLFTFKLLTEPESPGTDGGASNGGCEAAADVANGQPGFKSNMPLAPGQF
As to the kind of experiment: Intrinsic activity, aequorin luminescence functional assay at α1B-AR. The class given is cell-based. Particulars: for α1B-AR Profile: agonist/antagonist profile; for IC50: cells expressing aequorin and human α1B, against phenylephrine, means of three independent experiments in duplicates; for Selectivity Ratio α1A/α1B: selectivity for α1B-AR (IC50(α1A-AR)/IC50(α1B-AR)). Here is the method: as §2, §3, §1

The test system of series [4] is arterial blood pressure of normotensive Wistar rats. As to the kind of experiment: Influence on blood pressure in normotensive anesthetized rats after i.v. administration. The class given is in vivo, rat. Particulars: 2.0 mg/kg i.v., mean, n = 6. Here is the method:
In the next step, the hypotensive activity of novel compounds 1–3, 5–9, and 11–14 was determined after i.v. administration to normotensive anesthetized rats. All results are shown in Supplementary Table S1.
The normotensive rats were anesthetized with thiopental (75 mg/kg) by intraperitoneal injection (i.p.). The left carotid artery was cannulated with a polyethylene tub filled with heparin in saline to facilitate pressure measurements using a PowerLab Apparatus (ADInstruments, Sydney, Australia). Blood pressure was measured immediately before administration of the tested compounds or vehicle—time 0 min (initial blood pressure) and 60 min thereafter. Initial blood pressure before administration of the tested chemicals in all experimental groups was similar. The tested compounds were dissolved in a specific vehicle: ethyl alcohol 5% − kolliphor 5% − water 90%. All tested chemicals were administrated intravenously (i.v.) at a constant volume of 1 mL/kg after 20 min of stabilization period. The compounds were tested at a starting dose of 2 mg/kg. If the hypotensive activity was found, the dose was reduced by half. The dosing was continued until the hypotensive effects disappeared. Urapidil was used as a reference compound.
as §1

[5] abbreviates: 0 min (initial, before administration).

Regarding `CC1(C)C(=O)N(Cc2ccc(Cl)cc2Cl)C(=O)N1CCCCCCN1CCN(c2ccc(Cl)c(Cl)c2)CC1.Cl` [Compound 4, 3-(2,4-dichlorobenzyl)-1-(6-(4-(3,4-dichlorophenyl)piperazin-1-yl)hexyl)-5,5-dimethylimidazolidine-2,4-dione hydrochloride], the melting point lay within 154 to 156 °C. The Ki in series [1] amounted to 255 nM.
For the compound `CCOc1ccccc1OCCN[C@H](C)Cc1ccc(OC)c(S(N)(=O)=O)c1` [Tamsulosin, tamsulosin hydrochloride, reference compound], the “α1A-AR Profile” value in series [2] was “Antagonist”. For the same compound, in series [3], the “α1B-AR Profile” value is on record as “Antagonist” and the half-maximal inhibitory concentration (IC50) stood at 0.48 nM.
As to `CNC[C@H](O)c1cccc(O)c1` [Phenylephrine, phenylephrine, reference compound], the “α1A-AR Profile” value in series [2] is “Agonist”. In series [3], the “α1B-AR Profile” value was “Agonist”.
In the case of `CC1(C)C(=O)N(Cc2ccc(Cl)cc2Cl)C(=O)N1CC(O)CN1CCN(C(c2ccccc2)c2ccccc2)CC1` (stereo not shown) [Compound 15], in series [1], the Ki was determined as 2440 nM.
In the case of `CC1(C)C(=O)N(Cc2ccc(Cl)cc2Cl)C(=O)N1CC(O)CN1CCN(c2ccccc2F)CC1` (stereo not shown) [Compound 7], the Ki in series [1] was found to be 100 nM. For the same compound, the “α1A-AR Profile” value in series [2] was “Antagonist”. The values for the IC50 in series [2] and in series [3] were 1410 nM and 484 nM, respectively. Further, in series [2], the “Selectivity Ratio α1B/α1A” value was determined as 0.34. Moreover, in series [3], the “α1B-AR Profile” value is reported as “Antagonist”. Also, the “Selectivity Ratio α1A/α1B” value in series [3] amounted to 2.92. The Diastolic blood pressure in series [4] (setting [5]) is reported as 103.2; in series [4] (5 min) it was 91.5; in series [4] (10 min) it was 91.0; in series [4] (20 min), 93.0; in series [4] (30 min) it was 92.0; in series [4] (40 min) it was 94.3. In addition, the Diastolic blood pressure in series [4] (50 min) worked out at 93.2; in series [4] (60 min), 91.3. The Systolic blood pressure in series [4] (setting [5]) is given as 137.8; in series [4] (5 min), 125.3; in series [4] (10 min) it was 124.3; in series [4] (20 min), 121.8; in series [4] (30 min), 123.8; in series [4] (40 min), 123.7. The Systolic blood pressure came to 122.7 in series [4] (50 min) and 121.5 in series [4] (60 min).
In the case of `CC1(C)C(=O)N(Cc2ccc(Cl)cc2Cl)C(=O)N1CC(O)CN1CCN(c2ccc(F)cc2F)CC1` (stereo not shown) [Compound 9], in series [1], the Ki is 42 nM. For the same compound, the “α1A-AR Profile” value in series [2] was “Antagonist”. Moreover, the results for the 50% inhibitory concentration (IC50) in series [2] and in series [3] were 162 nM and 147 nM, respectively. The “Selectivity Ratio α1B/α1A” value in series [2] stood at 0.91. Besides, in series [3], the “α1B-AR Profile” value was “Antagonist”. Moreover, in series [3], the “Selectivity Ratio α1A/α1B” value is 1.10. The Diastolic blood pressure came out at 100.3 in series [4] (setting [5]); 98.2 in series [4] (5 min); 93.5 in series [4] (10 min); 90.8 in series [4] (20 min); 93.2 in series [4] (30 min); 92.0 in series [4] (40 min). Also, the values for the Diastolic blood pressure in series [4] (50 min) and in series [4] (60 min) were 90.3 and 87.3, respectively. In addition, the Systolic blood pressure in series [4] (setting [5]) worked out at 135.2; in series [4] (5 min), 133.3; in series [4] (10 min), 127.0; in series [4] (20 min), 125.0; in series [4] (30 min), 128.2; in series [4] (40 min) it was 128.2. Moreover, the Systolic blood pressure in series [4] (50 min) came out at 127.2; in series [4] (60 min), 122.0.
Turning to `CC1(C)C(=O)N(Cc2ccc(Cl)cc2Cl)C(=O)N1CC(O)CN1CCN(c2ccc(F)cc2)CC1` (stereo not shown) [Compound 8], the Ki in series [1] is 44 nM. In series [2], the “α1A-AR Profile” value is on record as “Antagonist”. Further, the 50% inhibitory concentration (IC50) worked out at 817 nM in series [2] and 170 nM in series [3]. Also, the “Selectivity Ratio α1B/α1A” value in series [2] was 0.21. Besides, in series [3], the “α1B-AR Profile” value is “Antagonist”. Besides, the “Selectivity Ratio α1A/α1B” value in series [3] was 4.79. The Diastolic blood pressure in series [4] (setting [5]) stood at 96.7; in series [4] (5 min), 87.8; in series [4] (10 min), 89.0; in series [4] (20 min), 88.2; in series [4] (30 min), 86.5; in series [4] (40 min), 84.7. Moreover, the Diastolic blood pressure came out at 85.5 in series [4] (50 min) and 84.3 in series [4] (60 min). The Systolic blood pressure in series [4] (setting [5]) is given as 129.2; in series [4] (5 min) it was 121.5; in series [4] (10 min), 120.5; in series [4] (20 min) it was 120.0; in series [4] (30 min), 120.2; in series [4] (40 min), 119.5. The Systolic blood pressure in series [4] (50 min) is 120.0; in series [4] (60 min) it was 119.0.
For the compound `COc1cc2nc(N3CCN(C(=O)C4CCCO4)CC3)nc(N)c2cc1OC` (stereo not shown) [Terazosin, terazosin hydrochloride, reference compound], the “α1A-AR Profile” value in series [2] is reported as “Antagonist”. Moreover, in series [3], the “α1B-AR Profile” value is “Antagonist”.

(Values after publication PMC10706087, “The Subtype Selectivity in Search of Potent Hypotensive Agents among 5,5-Dimethylhydantoin Derived α1-Adrenoceptors Antagonists” (International Journal of Molecular Sciences, 2023).)
